Experimental data taken from ChEMBL document CHEMBL1201862, “PubChem BioAssay data set” (2004).
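The compound was tested at five concentrations on cells cultured in 96-well plates, with a 48-hour exposure period. The concentration for 50% growth inhibition is given as GI50.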 The source made the active and inactive calls. Rule as the data show it: active = GI50 up to about 1.1 µM and inactive = higher.

Tests used:
Test in all cases: DTP human tumour cell line panel, 48 h
[1] = tested on: CAKI-1
[2] = tested on: A498
[3] = tested on: UACC-257
[4] = tested on: 786-0
[5] = tested on: SNB-19
[6] = tested on: TK-10
[7] = tested on: CCRF-CEM
[8] = tested on: Malme-3M
[9] = tested on: SF-295
[10] = tested on: SR
[11] = tested on: A549
[12] = tested on: U-251
[13] = tested on: OVCAR-4
[14] = tested on: HL-60
[15] = tested on: SNB-75
[16] = tested on: HCT-15
[17] = tested on: OVCAR-3

Row | SMILES | GI50 [1] | GI50 [2] | GI50 [3] | GI50 [4] | GI50 [5] | GI50 [6] | GI50 [7] | GI50 [8] | GI50 [9] | GI50 [10] | GI50 [11] | GI50 [12] | GI50 [13] | GI50 [14] | GI50 [15] | GI50 [16] | GI50 [17]
1 | COC(=O)C1C(C(=O)OC)C2C(=O)C3C(C(=O)OC)C(C(=O)OC)C3C(=O)C12 (centres undefined) | > 100 µM (inactive) | > 100 µM (inactive) | > 100 µM (inactive) | > 100 µM (inactive) | > 100 µM (inactive) | > 100 µM (inactive) | > 100 µM (inactive) | > 100 µM (inactive) | > 100 µM (inactive) | > 100 µM (inactive) | > 100 µM (inactive) | > 100 µM (inactive) | > 100 µM (inactive) | > 100 µM (inactive) |  |  | 
2 | C/C=N\N1C(=O)c2ccccc2C1=O | > 100 µM (inactive) | > 100 µM (inactive) | > 100 µM (inactive) | > 100 µM (inactive) | > 100 µM (inactive) | > 100 µM (inactive) | > 100 µM (inactive) | > 100 µM (inactive) | > 100 µM (inactive) | > 100 µM (inactive) | > 100 µM (inactive) |  | > 100 µM (inactive) | > 100 µM (inactive) | > 100 µM (inactive) | > 100 µM | > 100 µM (inactive)
3 | CCOC(=O)Cn1c(=O)[nH]c(=O)c2c1ncn2Cc1ccccc1 | > 100 µM (inactive) | > 100 µM (inactive) | > 100 µM (inactive) | > 100 µM (inactive) | > 100 µM (inactive) | > 100 µM (inactive) | > 100 µM (inactive) | > 100 µM (inactive) | > 100 µM (inactive) | > 100 µM (inactive) | > 100 µM (inactive) | > 100 µM (inactive) | > 100 µM (inactive) | > 100 µM (inactive) | > 100 µM (inactive) | > 100 µM | > 100 µM (inactive)
4 | NC(=S)N/N=C(/CCN1CCCC1)CC(C1=C(O)C2=CCCCC2OC1=O)c1ccccc1 (centres undefined) | > 100 µM (inactive) | > 100 µM (inactive) | > 100 µM (inactive) | > 100 µM (inactive) | > 100 µM (inactive) | > 100 µM (inactive) | 80 µM (inactive) | > 100 µM (inactive) | > 100 µM (inactive) | 70 µM (inactive) | > 100 µM (inactive) | > 100 µM (inactive) | > 100 µM (inactive) | > 100 µM (inactive) | > 100 µM (inactive) | > 100 µM | > 100 µM (inactive)
5 | COC(=O)C(=NNc1ccccc1[N+](=O)[O-])C(=O)OC | > 100 µM (inactive) | > 100 µM (inactive) | > 100 µM (inactive) | > 100 µM (inactive) | > 100 µM (inactive) | > 100 µM (inactive) | > 100 µM (inactive) | > 100 µM (inactive) | > 100 µM (inactive) | > 100 µM (inactive) | > 100 µM (inactive) | > 100 µM (inactive) | 88.1 µM (inactive) | > 100 µM (inactive) |  |  | 
6 | COc1ccc(-c2c3ccccc3c(-c3ccc(OC)cc3)c3ccccc23)cc1 | > 100 µM (inactive) | > 100 µM (inactive) | > 100 µM (inactive) | > 100 µM (inactive) | > 100 µM (inactive) | > 100 µM (inactive) | > 100 µM (inactive) | > 100 µM (inactive) | > 100 µM (inactive) | > 100 µM (inactive) | > 100 µM (inactive) | > 100 µM (inactive) | > 100 µM (inactive) | > 100 µM (inactive) | 29.5 µM (inactive) | > 100 µM | > 100 µM (inactive)
7 | C[N+]1(C)C[C@@H](O)C[C@@H]1C(=O)[O-] [BETONICINE] |  | > 100 µM (inactive) | > 100 µM (inactive) | > 100 µM (inactive) | > 100 µM (inactive) | > 100 µM (inactive) | > 100 µM (inactive) | > 100 µM (inactive) | > 100 µM (inactive) | > 100 µM (inactive) | > 100 µM (inactive) | > 100 µM (inactive) | > 100 µM (inactive) | > 100 µM (inactive) | > 100 µM (inactive) | > 100 µM | > 100 µM (inactive)
8 | CCCN(CCC)C(=O)Cc1c2n(c3ccccc13)Cc1ccccc1-2 | 30.1 µM (inactive) |  | > 100 µM (inactive) | 57 µM (inactive) | > 100 µM (inactive) | > 100 µM (inactive) | > 100 µM (inactive) | 58.9 µM (inactive) | 33.8 µM (inactive) | 33.1 µM (inactive) | 27.9 µM (inactive) | > 100 µM (inactive) | 49.5 µM (inactive) | 28.8 µM (inactive) | 6.62 µM (inactive) | > 100 µM | > 100 µM (inactive)
9 | CN/C(=N/C#N)NCc1ccccc1 | > 100 µM (inactive) | > 100 µM (inactive) | > 100 µM (inactive) | > 100 µM (inactive) | > 100 µM (inactive) | > 100 µM (inactive) | > 100 µM (inactive) | > 100 µM (inactive) | > 100 µM (inactive) | > 100 µM (inactive) | > 100 µM (inactive) | > 100 µM (inactive) | > 100 µM (inactive) | > 100 µM (inactive) | > 100 µM (inactive) | > 100 µM | > 100 µM (inactive)
